In patent publication US12419857B2, “Oral topiramate suspension formulations with extended shelf stability and enhanced bioavailability” (Rosemont Pharmaceuticals Limited, priority 2018, dated 2025):
Values after ≈ are worked out from the molar mass of the structure shown. Read-outs that look alike come from different tables or passages of the source.

Key:
[1] = acetone, chloroform, dimethylsulfoxide, ethanol; cited from earlier work
[2] = Dissolution testing (paddles 58 RPM) at three pH levels vs TOPAMAX 200 mg Tablets; format: physicochemical; conditions: once the suspension matrix has degraded
Procedure: Two issues were observed during the dissolution testing of the oral topiramate suspension: (i) the suspension produces very poor inter-vessel reproducibility with very large error values up until near dissolution completion and (ii) when comparing the reference tablet formulation with the suspensions very poor comparison is seen as the tablets tend to complete dissolution at a much faster rate. It was determined that both of these issues are caused by the physiochemical characteristics of the topiramate suspension vehicle and the release of the active ingredient from the suspension matrix. Once the suspension matrix is broken down, the topiramate becomes readily bioavailable. […] Changes in the physical nature of the product can also be detected with this novel testing approach.
Process validation batches were manufactured using the final production equipment and facility to cGMP and compared to a reference product (TOPAMAX® 200 mg Tablets) using dissolution (paddles 58 RPM) at three pH levels (i.e., 1.2, 4.5 and 6.8). FIG. 7. […] Thus, data support the claim that the disclosed 10 mg/ml and 20 mg/ml oral liquid topiramate suspension products are bioequivalent to the reference product TOPAMAX® 200 mg tablets (Janssen Cilag, Ltd.).

[3] = Solubility of topiramate in water and non-aqueous reagents; format: physicochemical; conditions: for solubility: water
Description: The present application discloses the first example of an aqueous suspension of topiramate with extended physicochemical stability and therapeutic bioavailability equivalent to that of commercially approved solid dose formulations. […] See, Physician's Desk Reference, 56th ed., pp. 2590-2595 (2002). Topiramate may be produced according to the processes disclosed in U.S. Pat. Nos. 4,513,006 and 5,387,700, the entire contents of which are herein incorporated by reference. Topiramate is sold in the United States under the trade name TOPAMAX® (Ortho-McNeil Pharmaceutical, Inc., Raritan, N.J., U.S.A). TOPAMAX® has been approved for use as an antiepileptic agent as an adjuvant therapy for patients with partial onset seizures, or primary generalized tonic-clonic seizures. See generally, Physician's Desk Reference, 56th ed., 2590-2595 (2002); see also, U.S. Pat. No. 4,513,006.
For drugs with low solubility and/or bioavailability at physiological pH and temperature, efforts to develop suspension formulations are often met with varying rates of success due to restrictive physiochemical parameters of the API and/or excipients. For example, while simply increasing the volume of diluent for low-solubility drugs may improve solubility, the large volume of diluent is often prohibitive from a patient perspective.
From a purely chemical perspective, topiramate is highly sensitive to heat (e.g., room temperature) and humidity (e.g., aqueous environment of liquid formulations). For example, abandoned U.S. Pat. App. No. 2006/0270611 discloses that topiramate is highly sensitive to hydrolysis in an aqueous medium and that any conventional aqueous oral solution would have a very limited shelf life. The chemical instability of topiramate is so well known, that pharmacists routinely monitor topiramate degradation by a change in physical appearance (e.g., tablet color changing from white to brown) and by an emergence of chemical breakdown byproducts (e.g., formation of sulfamate and sulphate ions and organic degradation compounds readily detected by HPLC). […]

BCS class [2]: BCS Class I or III | solubility ([3]; purified water, 25 °C, 25 degrees Celsius, read-out: observed solubility in purified water): 8300 µg/mL (≈ 24.5 mM) | pH of maximum aqueous solubility ([3]; strongly alkaline solutions): ~9.5 pH | solubility ([3]; 5 °C, 5 degrees Celsius, read-out: observed solubility in water): 6400 µg/mL (≈ 18.9 mM)
SMILES: CC1(C)O[C@@H]2[C@@H](CO[C@@]3(COS(N)(=O)=O)OC(C)(C)O[C@@H]23)O1 [topiramate, 2,3:4,5-Bis-O-(1-methylethylidene)- -D-fructopyranose sulfamate]
solubility in non-aqueous reagents [1]: freely soluble
